Assay results: patent US6395780B1, “Cleavage system inhibitors as potential antipsychotics” (Merck Patent GmbH, priority 1999, dated 2002)
“Also recorded” adds a separate entry of the source. Where two headings read alike, the source gives them in different places.

Key:
[1] = tested on: PCP-induced hyperlocomotion; experiment: PCP-induced hyperlocomotion model; format: in vivo
Method: For the PCP-induced hyperlocomotion model we use a test apparatus consisting of a clear plexiglass box (45 cm×45 cm) equipped with two series of equally spaced infrared beam lights controlling X-Y axes and connected to a microcomputer. Measured automatically are the distance (way) traveled [m], and the time spent with locomotion or resting [sec] in intervals of 30 min over a total of 90 minutes following PCP administration. […] PCP at the indicated dose induces excessive locomotor behavior with an increase of about 200-250% measured by either locomotion distance or time compared to control animals.

glycine levels = conditions: i.p. 250 mg/kg in 8 day old rats (Iwama 1997); cited from earlier work
[2] = tested on: PCP-induced disruption of PPI; experiment: PCP-induced disruption of prepulse inhibition (PPI); format: in vivo, rats
From the text: For the PCP-induced disruption of PPI we use a commercially available standard equipment (Coulbourn Instruments, USA) consisting of a sound attenuated test box equipped with a startle response measuring unit connected to a microcomputer; a white noise generator applies a constant level of back ground noise during the experiment. After a habituation period, a series of 70 combinations of prepulses (no prepulse or […] above back ground noise) and pulses (90 to 126 dB) is randomly applied to the rats. […] In control animals, presentation of the prepulse inhibits the startle response elicited by the pulse alone. PCP at the indicated doses induces a disruption of PPI by a maximum of about 70% compared to control animals. The doses indicated above are used for valproate and cysteamine, administered before the PCP challenge.

[3] = tested on: apomorphine-induced climbing behavior; experiment: apomorphine-induced climbing test in mice; format: in vivo; conditions: for inhibition of apomorphine-induced climbing behavior: apomorphine 1.25 mg/kg subcutaneously
From the text: Although the complex interaction of glycine with the neurotransmitter dopamine is not yet fully understood, the counterbalancing effects (symmetric bilateral changes) of glycine and dopamine, at least in part via GABAergic and cholinergic interneurons, in the central nervous system are well known for long ([…] et al., 1978; Giorguieff et al., 1979; […] et al., 1979; Schmidt and […] et al., 1998). Dopamine antagonists are the classic antischizophrenic drugs, and conventional animal models to test for antischizophrenic drugs with a dopaminergic mechanism of action use the induction of stereotyped behaviours such as climbing behavior in mice by the application of dopamine-agonistic drugs such as apomorphine (Protais et al., 1976; Puech et al., 1978). […] Therefore the model compound cysteamine at the doses indicated before are investigated in the climbing test in mice, too.

[4] = tested on: hyperlocomotion induced by PCP or related drugs; conditions: PCP or related drugs as challenge stimulants, rodents; cited from earlier work
[5] = target: T1, Glycine Cleavage System (GCS) (Homo sapiens, UniProt P09622+P23378+P23434+P48728); conditions: Benavides 1983; cited from earlier work
[6] = target: T1, Glycine Cleavage System (GCS); conditions: brain mitochondria; read-out: Ki for GCS inhibition; cited from earlier work
[7] = target: T1, Glycine Cleavage System (GCS); conditions: liver mitochondria; read-out: Ki for GCS inhibition; cited from earlier work
negative symptoms = conditions: cited from earlier work
[8] = tested on: negative symptoms in schizophrenic patients; conditions: cited from earlier work

T1 sequence (P23378 36-1020): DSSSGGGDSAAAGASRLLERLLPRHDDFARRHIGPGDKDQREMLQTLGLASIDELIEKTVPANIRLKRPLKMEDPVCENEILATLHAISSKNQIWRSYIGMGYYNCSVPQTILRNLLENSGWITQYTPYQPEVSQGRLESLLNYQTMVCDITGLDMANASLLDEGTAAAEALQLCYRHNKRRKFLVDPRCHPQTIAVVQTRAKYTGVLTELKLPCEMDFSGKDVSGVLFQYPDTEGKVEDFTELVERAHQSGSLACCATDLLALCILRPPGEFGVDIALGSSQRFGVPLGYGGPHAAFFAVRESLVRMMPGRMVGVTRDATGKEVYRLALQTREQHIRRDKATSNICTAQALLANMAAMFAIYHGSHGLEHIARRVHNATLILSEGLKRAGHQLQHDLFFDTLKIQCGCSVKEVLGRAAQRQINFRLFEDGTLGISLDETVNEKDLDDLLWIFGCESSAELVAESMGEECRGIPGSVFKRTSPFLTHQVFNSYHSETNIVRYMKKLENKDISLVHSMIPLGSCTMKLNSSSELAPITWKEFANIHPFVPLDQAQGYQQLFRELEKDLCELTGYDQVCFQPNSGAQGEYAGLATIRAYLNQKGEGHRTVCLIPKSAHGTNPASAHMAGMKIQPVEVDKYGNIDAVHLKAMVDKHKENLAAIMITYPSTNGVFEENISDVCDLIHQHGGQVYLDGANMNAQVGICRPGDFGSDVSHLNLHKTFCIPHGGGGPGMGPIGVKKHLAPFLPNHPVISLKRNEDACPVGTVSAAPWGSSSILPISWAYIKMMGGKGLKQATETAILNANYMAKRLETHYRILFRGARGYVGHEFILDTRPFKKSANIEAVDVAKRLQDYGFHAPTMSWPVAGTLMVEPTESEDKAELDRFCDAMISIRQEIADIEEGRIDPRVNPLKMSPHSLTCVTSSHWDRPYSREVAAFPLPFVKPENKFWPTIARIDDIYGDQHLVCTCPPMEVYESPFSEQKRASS
T1 sequence (P48728 29-403): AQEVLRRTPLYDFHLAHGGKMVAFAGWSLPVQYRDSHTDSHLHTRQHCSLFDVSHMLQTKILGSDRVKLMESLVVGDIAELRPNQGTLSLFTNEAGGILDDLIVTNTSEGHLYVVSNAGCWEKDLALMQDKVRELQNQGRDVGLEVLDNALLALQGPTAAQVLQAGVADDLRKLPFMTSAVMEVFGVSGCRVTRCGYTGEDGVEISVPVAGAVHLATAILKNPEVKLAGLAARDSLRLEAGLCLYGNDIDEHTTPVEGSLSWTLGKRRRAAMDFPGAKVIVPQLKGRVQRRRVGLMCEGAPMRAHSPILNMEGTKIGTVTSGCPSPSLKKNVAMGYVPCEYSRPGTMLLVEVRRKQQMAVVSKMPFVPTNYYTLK
T1 sequence (P23434 49-173): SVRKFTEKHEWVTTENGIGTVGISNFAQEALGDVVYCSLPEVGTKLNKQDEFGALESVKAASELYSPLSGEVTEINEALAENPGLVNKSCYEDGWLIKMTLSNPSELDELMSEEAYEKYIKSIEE
T1 sequence (P09622 36-509): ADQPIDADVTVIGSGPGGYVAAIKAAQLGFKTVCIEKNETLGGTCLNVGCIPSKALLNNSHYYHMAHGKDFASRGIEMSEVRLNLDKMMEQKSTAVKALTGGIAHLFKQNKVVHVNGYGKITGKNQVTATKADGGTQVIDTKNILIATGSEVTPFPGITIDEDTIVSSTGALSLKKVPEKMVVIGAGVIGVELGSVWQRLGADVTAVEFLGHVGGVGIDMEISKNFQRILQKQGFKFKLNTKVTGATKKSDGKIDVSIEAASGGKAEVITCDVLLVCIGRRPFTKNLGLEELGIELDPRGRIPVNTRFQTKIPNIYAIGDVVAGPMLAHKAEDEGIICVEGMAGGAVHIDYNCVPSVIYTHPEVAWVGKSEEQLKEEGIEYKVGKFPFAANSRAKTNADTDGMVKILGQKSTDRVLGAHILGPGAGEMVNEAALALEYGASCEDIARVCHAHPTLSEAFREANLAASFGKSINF

In the case of NCCS [Cysteamine], the “effect on PCP-induced hyperlocomotion” value ([1]; 100 to 500 mg/kg parenterally before PCP 5 mg/kg i.p., distance traveled and locomotion time over 90 min) is given as “reduction of PCP-induced hyperlocomotion; also recorded: reduce PCP-induced hyperlocomotion”, the “glycine in the cortex, % of control animals” value (glycine levels) is given as 360% and the “effect on PCP-induced disruption of PPI” value ([2]; 100 to 500 mg/kg parenterally before PCP 1-5 mg/kg s.c., different prepulse/pulse combinations) is given as “reverse PCP-induced disruption of PPI”. It also gave an ED50 ([3]; Mus musculus, given prior to the apomorphine challenge, read-out: ED50 (dose which inhibits apomorphine-induced climbing by 50%)) of 500 mg/kg.
In the case of N[C@@H]1CCN(O)C1=O [R-(+)-HA-966, R-(+)-3-amino-1-hydroxypyrrolid-2-one], the “efficacy in the hyperlocomotion model” value [4] is given as “repeatedly demonstrated”.
In the case of c1ccc(C2(N3CCCCC3)CCCCC2)cc1 [PCP, phencyclidine], the “increase of locomotor behavior (distance or time) compared to control animals” value ([1]; PCP 5 mg/kg intraperitoneally) is reported as 200-250% and the “disruption of PPI compared to control animals (maximum)” value ([2]; PCP 1-5 mg/kg subcutaneously) is reported as “about 70%”.
In the case of C#CCN [propargylamine], the “GCS inhibition (in words)” value [5] is listed as “weak inhibitors”.
For CCCC(CCC)C(=O)O [Valproate], the Ki [6] is given as 2000 µM and the Ki [7] is given as 590 µM.
For NCC(=O)O [glycine], the side effects (negative symptoms; 0.4 g/kg and 0.8 g/kg glycine orally along with usual antipsychotic medication) is given as “No changes”, the “amelioration of negative symptoms” value (negative symptoms; 0.4 g/kg glycine orally along with usual antipsychotic medication) is given as 15% and the “amelioration of negative symptoms” value (negative symptoms; 0.8 g/kg glycine orally along with usual antipsychotic medication) is given as 30%. The “efficacy in the hyperlocomotion model” value [4] was “repeatedly demonstrated”.
For N[C@@H]1CONC1=O [D-cycloserine], the “inhibition of apomorphine-induced climbing behavior” value [3] is listed as “inhibited”, the negative symptoms ([8]; 50 mg/d along with effective dose of antipsychotics, double blind, placebo-controlled (Goff 1999)) is listed as “improvement in negative symptoms” and the “negative symptoms in schizophrenic patients” value ([8]; 50 mg/d, trial assessing 15 to 250 mg/d (Goff 1995)) is listed as “reduced negative symptoms”. For the same molecule, the “efficacy in the hyperlocomotion model” value [4] was “repeatedly demonstrated”.
For CCCCCCCCCCCCNC(=O)CN [GDA, glycyldodecylamide], the “inhibition of apomorphine-induced climbing behavior” value [3] is listed as “inhibited” and the “efficacy in the hyperlocomotion model” value [4] is listed as “repeatedly demonstrated”.
In the case of N#CCN [aminoacetonitrile], the “GCS inhibition (in words)” value [5] is listed as “weak inhibitors”.
